Patent US10195156B2, “Compounds and compositions for intracellular delivery of agents” (ModernaTX, Inc., priority 2015, dated 2019)
Read-outs that look alike come from different tables or passages of the source.

Key:
[1] = Concentration of RNA in nanoparticle composition (ultraviolet-visible spectroscopy); type: physicochemical; settings: Table 5, hEPO mRNA
Experimental: Ultraviolet-visible spectroscopy can be used to determine the concentration of a therapeutic and/or prophylactic agent (e.g., RNA) in nanoparticle compositions. 100 μL of the diluted formulation in 1×PBS is added to 900 μL of a 4:1 (v/v) mixture of methanol and chloroform. After mixing, the absorbance spectrum of the solution is recorded, for example, between 230 nm and 330 nm on a DU 800 spectrophotometer (Beckman Coulter, Beckman Coulter, Inc., Brea, Calif.). The concentration of therapeutic and/or prophylactic agent in the nanoparticle composition can be calculated based on the extinction coefficient of the therapeutic and/or prophylactic agent used in the composition and on the difference between the absorbance at a wavelength of, for example, 260 nm and the baseline value at a wavelength of, for example, 330 nm.

[2] = pKa of nanoparticle compositions; type: physicochemical
[3] = system: IL-6; test: Cytokine production induced by sample formulations: IL-6; type: in vivo; settings: Table 4; mice, i.v., 0.5 mpk, 6 hours; in pg/mL (unit assumed)
Summary of the method: (§1)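 Mice received nanoparticle formulations intravenously at 0.5 mpk, with standard MC3 formulation and PBS as controls. Cytokine concentrations were measured 6 hours after dosing.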

[4] = Encapsulation efficiency of RNA (QUANT-IT RIBOGREEN RNA assay); type: physicochemical
Summary of the method: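 Nanoparticle samples diluted to ~5 μg/mL RNA in TE buffer (pH 7.5), incubated with or without 2% Triton X-100 solution at 37 °C for 15 min, then RiboGreen added. Fluorescence read at ~480/520 nm, blank-subtracted; free RNA % = intact over Triton-disrupted signal.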

[5] = system: modified luciferase expression; test: Expression of Luc in different organs (liver, lung, spleen, femur) 6 hours after intravenous administration; type: in vivo; settings: Table 3, mice, i.v., 0.5 mpk
Experimental: The efficacy of the nanoparticle compositions presented in Tables 1, 1a, 17-1, 19-1, 20-1 and 21-1 was further evaluated by measuring the expression of modified luciferase in the liver, lung, spleen, and femur upon administration of a given composition. Formulations were administered intravenously to mice (n=3) at a dosage of 0.5 mpk and bioluminescence measured after 6 hours. The standard MC3 formulation and a PBS control were also tested.

[6] = system: luciferase (Luc) mRNA expression; test: Expression of Luc induced by sample formulations, whole-body bioluminescence after intravenous administration; type: in vivo; settings: for Total Flux 3 hours / Total Flux 6 hours / Total Flux 24 hours: Table 2
Summary of the method: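 Mice (n=6) dosed intravenously with Luc mRNA nanoparticle formulations at 0.5 mg/kg. Whole-body bioluminescence measured at 3, 6 and 24 h. Standard MC3 formulation and PBS control run alongside.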

[7] = system: IP-10; test: Cytokine production induced by sample formulations: IP-10; type: in vivo; settings: Table 4; mice, i.v., 0.5 mpk, 6 hours; in pg/mL (unit assumed)
Summary of the method: as §1

[8] = Tolerability / toxicity in rats (hEPO study); type: in vivo; settings: FIG. 8, i.v., 2 mg/kg dose
[9] = Particle size and polydispersity index of nanoparticle compositions (Zetasizer Nano ZS); type: physicochemical
Summary of the method: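 Particle size and PDI were measured on a Zetasizer Nano ZS with the nanoparticle compositions dispersed in 1×PBS.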

[10] = system: hEPO mRNA expression; test: Expression of hEPO in rats after intravenous administration; type: in vivo
Experimental: PBS (phosphate buffered saline) is used as control.
Formulations were prepared according to Table 5 and included mRNA encoding hEPO.
[…] After the 48 hour time point, livers and spleens were harvested and frozen.

[11] = system: LDLr−/− mice; test: Expression in LDLr−/− mice (LDLr dependence); type: in vivo; settings: FIG. 9, FIG. 10
[12] = system: LDL-c; test: LDL levels in LDLr−/− mice after mRNA encoding the LDL receptor; type: in vivo, LDLR knockout mice
[13] = system: GFP expression in liver cells; test: Mouse liver immunohistochemistry (IHC) with GFP mRNA; type: in vivo; settings: FIG. 11, i.v., 0.5 mpk, 6 h (MC3, CD-1) or 8 h (Compound 4, LDLR knockout)
Experimental: FIG. 11 is a pair of images comparing the results of a mouse liver immunohistochemistry (IHC) using mRNA expressing green fluorescent protein (GFP) after administration of nanoparticle compositions containing Compound 4 and MC3.
FIG. 16 is a graph showing GFP levels in the livers of LDLR knockout mice at 30 min to 24 h after intravenous administration of an eGFP RNA in a lipid composition containing Compound 4. The liver GFP levels were determined via IHC. The square markers represent the number of GFP positive cells following administration of a dose of 0.1 mpk of the composition. The circular markers represent the number of GFP positive cells following administration of a dose of 0.5 mpk of the composition.

[14] = Lipid levels in liver and spleen 48 hours after administration; type: in vivo, rats; settings: for concentration at 48 h: Sprague-Dawley, rat, intravenous
Experimental: Formulations were administered intravenously to rats (n=3 or 6) at a dosage of 0.2 mg/kg or 0.5 mg/kg (mpk) and hEPO levels measured at 3, 6, and 24 hour time points. After the 48 hour time point, livers and spleens were harvested and frozen.
The amount of lipid in the liver and spleen 48 hours after administration of a nanoparticle composition was also measured. […] In contrast, approximately 60% of doses including MC3 or Compound 22 remained in the liver after 48 hours. Less than 3% of the dose remained in the spleen for each composition tested.

[15] = system: Luc expression; test: ApoE dependence of luciferase expression (ApoE knockout vs. wild-type mice); type: in vivo; settings: 0.5 mpk, 6 h
Text: FIG. 17 is a pair of graphs showing the ApoE dependence of luciferase (“Luc”) expression following administration of a composition containing Luc mRNA and Compound 4 to mice at a dose 0.5 mpk. The expression following administration of a composition containing Luc mRNA and MC3 is presented for comparison. […] The % change in Luc expression in livers of ApoE knockout vs. wild-type mice (i.e., (WT mean expression-KO mean expression)/WT mean expression]*100%) was 91.9% for Compound 4 and 97.5% for MC3. […] The % change in expression in spleens of ApoE knockout vs. wild-type mice was 4.34% for Compound 4 and 72.2% for MC3. Numbers 1-4 refer to the following: 1: Composition containing Compound 4, administered to ApoE knockout mice; 2: Composition containing Compound 4, administered to wild-type mice; 3: Composition containing MC3, administered to ApoE knockout mice; 4: Composition containing MC3, administered to wild-type mice.

[16] = system: hEPO mRNA expression; test: hEPO levels in non-human primates; type: in vivo; settings: FIG. 10, up to ~50 h
Experimental: FIG. 10 is a graph showing hEPO levels in non-human primates up to ˜50 h after administration of a nanoparticle composition containing Compound 4, compared to a composition containing MC3.
The tolerability and efficacy of nanoparticle compositions to non-human primates is evaluated in Cynomolgus monkeys. Monkeys are administered an optimized nanoparticle composition including an mRNA encoding hEPO once weekly for four weeks. The levels of hEPO protein, mRNA, and cytokine profiles are measured using ELISA-based techniques before and 2, 6, 12, 24, 48, 72, and 120 hours after each administration.

[17] = Table 1, rows without footnote mark
[18] = Table 5, hEPO mRNA, 40:20:38.5:1.5 Lipid:DOPE:Chol:PEG-DMG
[19] = Table 5, hEPO mRNA, 50:10:38.5:1.5 Lipid:DSPC:Chol:PEG-DMG
[20] = Table 1, rows without footnote mark (lipid:DOPE:cholesterol:PEG-DMG 40:20:38.5:1.5, Luc mRNA; MC3 standard formulation)

Compound	pKa [2, 17]	IL-6 [3]	EE (%) [4, 17] [%]	Total Flux Femur [5]	Total Flux Liver [5]	Total Flux Lung [5]	Total Flux Spleen [5]	Total Flux 3 hours ([6]; mice, i.v., 0.5 mg/kg, 3 hours)	Total Flux 6 hours ([6]; mice, i.v., 0.5 mg/kg)	Total Flux 24 hours ([6]; mice, i.v., 0.5 mg/kg)	IP-10 [7]	tolerability / toxicity in rats (in words) [8]	PDI [9, 17]	Size (nm) [9, 20] [nm]	LDLr dependence of the lipid (in words) [11]	further results
CCCCCCCCCCCCN(CCCCCCCCCCCC)CCN(CCCCCCCCCCCC)CCN1CCN(CCN(CCCCCCCCC)CCCCCCCCC)CC1 [Compound 23, N^1-(2-(4-(2-(Dinonylamino)ethyl)piperazin-1-yl)ethyl)-N^1,N^2,N^2-tridodecylethane-1,2-diamine]	6.07	259	82.9	3.17E+06	4.94E+09	1.51E+07	2.95E+07	2.33E+10	3.40E+10	1.06E+09	3702	toxic	0.058	85.4	–	Conc. ([1]; 40:20:38.5:1.5 Lipid:DOPE:Chol:PEG-DMG): 438.20 µg/mL; Conc. ([1]; 50:10:38.5:1.5 Lipid:DSPC:Chol:PEG-DMG): 454.58 µg/mL; pKa [2, 18]: 6.070; pKa [2, 19]: 6.164; EE (%) [4, 18]: 77.19%; EE (%) [4, 19]: 51.46%; Luc expression in mice compared with MC3 (in words) ([6]; Table 7a): several fold higher; total flux after 3 hours, rank within the named table (in words) ([6]; mice, i.v., 0.5 mg/kg, 3 hours): highest flux after 3 hours; PDI [9, 18]: 0.16; Size (nm) [9, 18]: 98.5 nm; PDI [9, 19]: 0.11; Size (nm) [9, 19]: 95.2 nm
CCCCCCCCCCCCN(CCCCCCCCCCCC)CCN(CCCCCCCCCCCC)CC(=O)N1CCN(C(=O)CN(CCCCCCCCCCCC)CCCCCCCCCCCC)CC1 [Compound 11, 2-(Didodecylamino)-1-(4-(N-(2-(didodecylamino)ethyl)-N-dodecylglycyl)piperazin-1-yl)ethan-1-one]	6.54	250	99.5	1.47E+06	1.67E+09	2.21E+06	7.21E+06	1.23E+10	3.81E+09	8.20E+08	3305	improved tolerability as compared to KL22	0.099	87.4	LDLr independent lipid	hEPO expression in rats (in words) ([10]; FIG. 8, rats, i.v., 2 mpk (Graph A)): comparable to MC3; LDL-c levels in LDLR knockout mice (in words) ([12]; FIG. 9 Graph B, mRNA encoding the LDL receptor, 0.5 and 1 mpk): found to drop
CCCCCCCCCN(CCCCCCCCC)CCN(CCCCCCCCC)CC(=O)N1CCN(C(=O)CN(CCCCCCCCC)CCCCCCCCC)CC1 [Compound 4, 2-(Dinonylamino)-1-(4-(N-(2-(dinonylamino)ethyl)-N-nonylglycyl)piperazin-1-yl)ethan-1-one]	7.12	–	96.78	–	–	–	–	–	–	–	–	–	0.120	89.7	LDLr independent lipid	GFP protein expression in liver cell types (in words) [13]: less protein expression in Kupffer cells; concentration at 48 h ([14]; liver, 48 hours after administration, read-out: Lipid in liver): 22000 ng/g; concentration at 48 h ([14]; spleen, 48 hours after administration, read-out: Lipid in spleen): 5340 ng/g; % remaining dose in liver ([14]; liver, 48 hours after administration): 38%; % dose remainng Rat liver (48 h) ([14]; rat liver, 48 h): 37.82%; % remaining dose in spleen ([14]; spleen, 48 hours after administration): 0.61%; AUC (0.1 mpk) ([10]; hEPO expression in S.D. rats, 0.1 mpk): 2.12E+06; AUC/MC3 0.1 mpk ([10]; hEPO expression in S.D. rats, 0.1 mpk, relative to MC3): 1.3; AUC (1 mpk) ([10]; hEPO expression in S.D. rats, 1 mpk): 6.79E+07; AUC/MC3 1 mpk ([10]; hEPO expression in S.D. rats, 1 mpk, relative to MC3): 0.58; % change in Luc expression in livers of ApoE knockout vs. wild-type mice ([15]; FIG. 17 Graph A, liver): 91.9%; % change in expression in spleens of ApoE knockout vs. wild-type mice ([15]; FIG. 17 Graph B, spleen): 4.34%; response vs control in vivo at 0.5 mg/kg ([12]; Mus musculus, Table 7b, LDLr−/− mice, 0.5 mpk, LDLr, read-out: LDL levels lipid/untreated LDLr−/− mice 0.5 mpk, LDLr): 54%; expression of hEPO compared to MC3 [16]: 3 fold
